Measured values taken from ChEMBL document CHEMBL1201862, “PubChem BioAssay data set” (2004).
Calls of active or inactive are those of the source.

Tests used:
[1] = viability of uninfected HEp-2 cells – cell-based, HTS, cytotoxicity control for RSV inhibitor project, dose response (AID 2410); assay type: functional; conditions: human respiratory syncytial virus
Vero [2] = assay: mammalian cell viability reduction – secondary assay, cytotoxicity control for West Nile virus antiviral project, dose response (AID 1650); assay type: functional; conditions: Chlorocebus sabaeus
Vero [3] = assay: cells; assay type: functional; conditions: Chlorocebus sabaeus
[4] = viability loss in THP-1 monocytes – THP-1 cells, cytotoxicity control for Vif-APOBEC3G degradation inhibitor project, dose response (AID 1117359); assay type: functional; conditions: THP-1
[5] = mitochondrial function rescue without frataxin homolog – Friedreich's ataxia, plus single-dose screen, dose response (AID 1465); assay type: functional;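 further: yeast depleted of Yfh1p frataxin homolog grown on glycerol needing respiration; WST-1 tetrazolium dye reduction as measure of cellular dehydrogenase metabolic activity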
Genome polyprotein = Genome polyprotein (Hepatitis C virus, UniProt Q2Q167); assay: disruption of hepatitis C core self-association – biochemical, TR-FRET, dose response (AID 2159); parameters: species or system Hepacivirus hominis;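 further: blocks dimerization of HCV core protein measured by TR-FRET between tagged core106 pairs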
Genome polyprotein, sequence (Q2Q167 whole entry): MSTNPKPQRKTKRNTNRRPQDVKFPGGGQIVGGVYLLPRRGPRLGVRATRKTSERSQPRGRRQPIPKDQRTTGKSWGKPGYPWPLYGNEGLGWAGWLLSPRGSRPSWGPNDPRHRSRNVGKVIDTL

[6] = HPDE-C7 pancreatic duct cell viability loss – fluorescence, HTS (AID 430); assay type: functional, cell-based; conditions: Homo sapiens
[7] = viability loss of HPDE-C7K cells – cell-based, fluorescence, HTS, primary screen (AID 431); assay type: functional; conditions: Homo sapiens
[8] = viability of PTEN-deleted HCT116 cells – cell-based, HCT116 PTEN knockout, dose response (AID 1047); assay type: functional;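 further: HCT116 colon tumor cells with PTEN knocked out; cells exposed to compound for 60 hours before readout; potency for loss of cell viability measured by luminescence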
[9] = viability of HCT116 lacking mutant beta-catenin – cell-based, human colon tumor, dose response (AID 1045); assay type: functional;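 further: HCT116 colon tumor cells with beta catenin knocked out; cells exposed to compound for 60 hours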
[10] = HEK-293T cell viability reduction – luminescence, B-cell screen hits, cytotoxicity control for BCR NF-kB inhibitor project, dose response (AID 489021); assay type: functional, cell-based;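 further: HEK-293T cells carrying an NF-kB luciferase reporter; cells exposed to compound for about 14 hours before viability readout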
[11] = target: T1, Hepatocyte nuclear factor 4-alpha (Homo sapiens, UniProt P41235); assay type: functional, cell-based;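 further: biochemical luminescence-based dose-response counterscreen measuring inhibition of HNF4 dimerization, run alongside a screen for blockers of ABHD5–perilipin-5 interaction; split luciferase complementation of HNF4 fusion proteins in cell lysate measuring dimerization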
T1 sequence (P41235 whole entry): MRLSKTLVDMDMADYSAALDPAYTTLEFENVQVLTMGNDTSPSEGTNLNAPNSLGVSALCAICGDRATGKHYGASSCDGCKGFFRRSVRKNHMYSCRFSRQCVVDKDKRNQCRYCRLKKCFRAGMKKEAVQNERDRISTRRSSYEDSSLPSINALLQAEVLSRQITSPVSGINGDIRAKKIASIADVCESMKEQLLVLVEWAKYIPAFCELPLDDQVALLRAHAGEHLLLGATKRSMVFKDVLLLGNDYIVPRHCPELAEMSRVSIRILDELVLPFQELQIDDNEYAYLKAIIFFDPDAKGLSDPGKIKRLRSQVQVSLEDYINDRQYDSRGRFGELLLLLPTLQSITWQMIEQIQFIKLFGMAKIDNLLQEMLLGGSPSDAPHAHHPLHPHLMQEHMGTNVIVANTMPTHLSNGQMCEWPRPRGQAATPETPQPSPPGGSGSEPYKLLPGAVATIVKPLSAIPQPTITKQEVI

[12] = viability loss in Vero cells – cytotoxicity control for Vif-APOBEC3G degradation inhibitor project, dose response (AID 1117358); assay type: functional; conditions: Vero
[13] = rise of 2N DNA cells, HeLa – IC50, dose response (AID 1117349); assay type: functional, cell-based
[14] = CellTiter-Glo luminescence survival assay, SW480 colon tumor line, concentration-response curve, half-maximal inhibitory concentration (AID 1117338); assay type: functional
[15] = RKO cell viability reduction, dose response, CellTiter-Glo luminescence (AID 1117322); assay type: functional
[16] = cytotoxicity toward HCT116 cells – cell-based, CellTiter-Glo luminescence, IC50, dose response (AID 1117332); assay type: functional; conditions: HCT-116
[17] = SNU-C1 cell viability reduction, dose response, CellTiter-Glo luminescence (AID 1117323); assay type: functional, cell-based
[18] = glucagon-like peptide-1 release potency in STC-1, concentration-response, half-maximal inhibitory concentration in the STC-1 line (AID 1117345); assay type: functional, cell-based
[19] = cytotoxicity toward Colo320 cells – cell-based, CellTiter-Glo luminescence, IC50, dose response (AID 1117334); assay type: functional; conditions: COLO 320
[20] = rise of 4N DNA cells, HeLa – IC50, dose response (AID 1117351); assay type: functional, cell-based
[21] = cytotoxicity toward HT-29 cells – cell-based, CellTiter-Glo luminescence, IC50, dose response (AID 1117330); assay type: functional
[22] = Reduced DLD-1 viability, concentration-response, CellTiter-Glo luminescence (AID 1117352); assay type: functional
[23] = HCT116 cell viability decrease, GSK3B pretreatment – CellTiter-Glo, IC50, dose response (AID 1117339); assay type: functional; conditions: HCT-116
[24] = Potency on glucagon-like peptide 1 release, dose-response in NCI-H716 cell line, half maximal inhibitory concentration (AID 1117344); assay type: functional, cell-based
[25] = target: T2, Neuropeptide Y receptor type 2 (Homo sapiens, UniProt P49146); assay: IC50 for human NPY-Y2 blockade – cell-based, counter-screen for NPY-Y1 antagonist project, dose response (AID 1278); assay type: functional
T2 sequence (P49146 whole entry): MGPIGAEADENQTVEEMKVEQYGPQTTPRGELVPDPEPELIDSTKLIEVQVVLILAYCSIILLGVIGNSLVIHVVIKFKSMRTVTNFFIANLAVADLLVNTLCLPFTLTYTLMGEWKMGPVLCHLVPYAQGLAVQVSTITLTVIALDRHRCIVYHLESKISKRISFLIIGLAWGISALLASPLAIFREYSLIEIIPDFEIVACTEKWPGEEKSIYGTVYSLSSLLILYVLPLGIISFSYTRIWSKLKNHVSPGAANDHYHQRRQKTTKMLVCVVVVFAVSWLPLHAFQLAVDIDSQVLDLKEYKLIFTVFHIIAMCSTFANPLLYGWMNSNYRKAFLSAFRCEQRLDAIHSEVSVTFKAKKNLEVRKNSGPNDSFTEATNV

[26] = target: T3, Neuropeptide Y receptor type 1 (Homo sapiens, UniProt P25929); assay: IC50 of human NPY-Y1 blockers – cell-based, dose response (AID 1277); assay type: functional
T3 sequence (P25929 whole entry): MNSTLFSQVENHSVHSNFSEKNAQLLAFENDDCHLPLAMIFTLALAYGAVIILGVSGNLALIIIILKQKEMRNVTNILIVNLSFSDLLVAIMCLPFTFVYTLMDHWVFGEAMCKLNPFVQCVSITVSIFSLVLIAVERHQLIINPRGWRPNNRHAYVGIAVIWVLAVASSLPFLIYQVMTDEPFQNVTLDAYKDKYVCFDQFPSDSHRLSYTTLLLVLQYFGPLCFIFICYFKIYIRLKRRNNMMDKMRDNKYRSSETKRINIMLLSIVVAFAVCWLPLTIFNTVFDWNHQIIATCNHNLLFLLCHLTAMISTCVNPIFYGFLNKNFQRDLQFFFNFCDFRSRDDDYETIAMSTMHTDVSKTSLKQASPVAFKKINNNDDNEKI

[27] = Luminescence Cell-Based Dose Response to Identify Activators of 5'UTR Stem-Loop Driven Prion Protein mRNA Translation in H4-C Neuroglioblastoma Cells. [Related pubchem assays: 1829 (Project Summary), 1814 (Primary HTS)]; assay type: functional
[28] = Luminescence Cell-Based Dose Confirmation HTS to Identify Activators of 5'UTR Stem-Loop Driven Alpha-Synuclein mRNA Translation in H4 Neuroglioblastoma Cells. [Related pubchem assays: 1829 (Project Summary), 1814 (Primary HTS)]; assay type: functional
[29] = Luminescence Cell-Based Dose Response HTS to Identify Activators of Luciferase Translation or Activity in H4 […] Cells. [Related pubchem assays: 1829 (Project Summary), 1814 (Primary HTS)]; assay type: functional
H4 = assay: Luminescence Cell-Based Dose Response HTS to Identify Activators of 5'UTR Stem-Loop Driven Prion Protein mRNA Translation in H4 Neuroglioblastoma Cells. [Related pubchem assays: 1829 (Project Summary), 1814 (Primary HTS)]; assay type: functional; conditions: Homo sapiens
[30] = Luminescence Cell-Based Dose Response to Identify Activators of Luciferase Translation or Activity in H4-C Neuroglioblastoma Cells. [Related pubchem assays: 1829 (Project Summary), 1814 (Primary HTS)]; assay type: functional
[31] = Luminescence Cell-Based Dose Confirmation to Identify Activators of 5'UTR Stem-Loop Driven Alpha-Synuclein mRNA Translation in H4 Neuroglioblastoma Cells. [Related pubchem assays: 1829 (Project Summary), 1814 (Primary HTS)]; assay type: functional
[32] = target: E3 ubiquitin-protein ligase Mdm2 (Homo sapiens, UniProt Q00987); assay: MDM2-luc reporter signal enhancers, multi-concentration potency testing, MDM2 ubiquitin-protein ligase inhibitor program, whole-cell format, luminescence detection, 384-well microplate (AID 1394); assay type: functional;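 further: MDM2 E3 inhibitors raise luminescence so EC50 is for signal enhancement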
E3 ubiquitin-protein ligase Mdm2, sequence (Q00987 whole entry): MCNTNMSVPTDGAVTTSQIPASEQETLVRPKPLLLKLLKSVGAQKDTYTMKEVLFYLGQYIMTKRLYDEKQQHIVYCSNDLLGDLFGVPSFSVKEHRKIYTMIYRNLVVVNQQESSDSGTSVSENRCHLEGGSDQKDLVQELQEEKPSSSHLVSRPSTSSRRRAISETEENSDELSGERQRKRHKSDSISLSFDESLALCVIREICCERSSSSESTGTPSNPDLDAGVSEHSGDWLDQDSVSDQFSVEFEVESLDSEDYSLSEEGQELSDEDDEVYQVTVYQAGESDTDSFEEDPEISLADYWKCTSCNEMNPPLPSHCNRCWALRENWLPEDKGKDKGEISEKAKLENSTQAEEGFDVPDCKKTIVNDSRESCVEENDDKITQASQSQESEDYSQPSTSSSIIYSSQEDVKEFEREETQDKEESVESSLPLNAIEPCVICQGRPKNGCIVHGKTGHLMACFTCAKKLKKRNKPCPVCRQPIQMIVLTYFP

[33] = target: Heat shock protein HSP 90-alpha (Homo sapiens, UniProt P07900); assay: Luminescence-based dose response biochemical high throughput screening assay for inhibitors of the Heat Shock Protein 90 (HSP90). [Related pubchem assays: 1831 (Summary AID.), 1846 (Confirmation screen.), 1789 (Primary screen.)]
[34] = target: Induced myeloid leukemia cell differentiation protein Mcl-1 (Homo sapiens, UniProt Q07820); assay: blockers of MCL1 binding to BIM peptide – biochemical, fluorescence polarization, BIM-BH3 peptide, 1536-well, dose response (AID 2217)
Induced myeloid leukemia cell differentiation protein Mcl-1, sequence (Q07820 whole entry): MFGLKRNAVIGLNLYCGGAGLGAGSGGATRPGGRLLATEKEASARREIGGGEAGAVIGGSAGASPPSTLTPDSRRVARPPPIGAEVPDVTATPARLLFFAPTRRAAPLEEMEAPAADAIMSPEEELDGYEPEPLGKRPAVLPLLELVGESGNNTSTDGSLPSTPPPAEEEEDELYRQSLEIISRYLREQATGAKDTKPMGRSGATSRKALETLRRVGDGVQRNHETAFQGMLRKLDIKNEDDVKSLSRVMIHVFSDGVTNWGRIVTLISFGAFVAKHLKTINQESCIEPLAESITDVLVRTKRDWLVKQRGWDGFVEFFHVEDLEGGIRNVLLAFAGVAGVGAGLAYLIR

Bcl-2-like protein 1 = Bcl-2-like protein 1 (Homo sapiens, UniProt Q07817); assay: blockers of BCLXL peptide binding – biochemical, fluorescence polarization, 1536-well, selectivity assay for MCL1 inhibitor project, dose response (AID 2218)
Bcl-2-like protein 1, sequence (Q07817 whole entry): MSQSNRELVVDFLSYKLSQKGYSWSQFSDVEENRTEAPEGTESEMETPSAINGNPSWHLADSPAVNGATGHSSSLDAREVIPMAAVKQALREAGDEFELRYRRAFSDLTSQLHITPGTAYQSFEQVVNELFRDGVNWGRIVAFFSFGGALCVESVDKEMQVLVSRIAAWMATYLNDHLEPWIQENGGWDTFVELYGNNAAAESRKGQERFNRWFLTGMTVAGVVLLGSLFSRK

[35] = target: Tyrosine-protein phosphatase non-receptor type 11 (Homo sapiens, UniProt Q06124); assay: PTPN11 enzyme inhibitors – biochemical, selectivity assay for STEP inhibitor project, dose response (AID 602367); assay type: functional; conditions: read-out: IC50_Mean
Tyrosine-protein phosphatase non-receptor type 11, sequence (Q06124 whole entry): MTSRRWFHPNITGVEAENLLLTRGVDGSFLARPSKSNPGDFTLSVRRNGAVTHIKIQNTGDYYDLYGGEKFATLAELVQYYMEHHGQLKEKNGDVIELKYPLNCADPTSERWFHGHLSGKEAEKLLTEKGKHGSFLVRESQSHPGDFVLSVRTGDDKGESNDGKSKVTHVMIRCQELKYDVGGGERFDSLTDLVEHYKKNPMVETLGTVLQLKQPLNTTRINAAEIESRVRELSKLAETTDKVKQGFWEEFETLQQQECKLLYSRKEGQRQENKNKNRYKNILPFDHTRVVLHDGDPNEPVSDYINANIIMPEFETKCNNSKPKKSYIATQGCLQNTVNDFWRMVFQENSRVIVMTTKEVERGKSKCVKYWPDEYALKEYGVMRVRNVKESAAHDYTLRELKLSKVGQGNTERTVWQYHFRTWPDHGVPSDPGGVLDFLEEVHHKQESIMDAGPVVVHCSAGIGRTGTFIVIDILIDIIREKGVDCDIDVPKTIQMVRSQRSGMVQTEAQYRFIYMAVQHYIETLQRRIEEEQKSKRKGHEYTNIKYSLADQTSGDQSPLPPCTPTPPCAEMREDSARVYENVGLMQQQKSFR

[36] = target: Tyrosine-protein phosphatase non-receptor type 5 (Homo sapiens, UniProt P54829); assay: PTPN5 enzyme inhibition – biochemical, fluorescence intensity, uHTS hits, confirmation (AID 602372); assay type: functional; conditions: read-out: IC50_Mean
Tyrosine-protein phosphatase non-receptor type 5, sequence (P54829 whole entry): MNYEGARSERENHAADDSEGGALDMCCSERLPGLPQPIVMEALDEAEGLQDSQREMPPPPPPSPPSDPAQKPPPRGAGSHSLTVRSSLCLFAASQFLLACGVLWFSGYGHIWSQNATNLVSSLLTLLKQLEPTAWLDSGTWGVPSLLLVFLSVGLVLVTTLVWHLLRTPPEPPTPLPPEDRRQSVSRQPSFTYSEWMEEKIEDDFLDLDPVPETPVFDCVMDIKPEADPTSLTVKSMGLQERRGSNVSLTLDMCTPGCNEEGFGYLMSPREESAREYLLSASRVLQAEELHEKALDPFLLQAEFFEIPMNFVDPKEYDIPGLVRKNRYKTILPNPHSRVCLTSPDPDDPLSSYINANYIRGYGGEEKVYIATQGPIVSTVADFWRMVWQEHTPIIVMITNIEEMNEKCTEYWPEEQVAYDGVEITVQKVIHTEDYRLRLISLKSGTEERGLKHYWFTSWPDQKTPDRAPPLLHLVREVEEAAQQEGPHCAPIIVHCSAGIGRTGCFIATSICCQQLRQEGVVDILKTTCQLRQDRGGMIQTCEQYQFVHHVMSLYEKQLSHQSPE

[37] = target: Dual specificity protein phosphatase 3 (Homo sapiens, UniProt P51452); assay: VHR phosphatase inhibition, dose response, selectivity assay for STEP inhibitor project, biochemical (AID 602374); assay type: functional; conditions: read-out: IC50_Mean
Dual specificity protein phosphatase 3, sequence (P51452 whole entry): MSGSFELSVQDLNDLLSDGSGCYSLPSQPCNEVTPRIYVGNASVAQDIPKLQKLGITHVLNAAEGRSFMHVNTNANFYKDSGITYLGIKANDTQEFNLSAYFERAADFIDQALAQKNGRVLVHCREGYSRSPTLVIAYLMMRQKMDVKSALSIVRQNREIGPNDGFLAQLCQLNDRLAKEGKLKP

[38] = target: T4, Small ubiquitin-related modifier 1 (Homo sapiens, UniProt P63165); assay: SUMO1 protein interaction blockers, potency – biochemical, fluorescence polarization, uHTS hits, dose response (AID 624382); assay type: functional; conditions: read-out: IC50_Mean
T4 sequence (P63165 whole entry): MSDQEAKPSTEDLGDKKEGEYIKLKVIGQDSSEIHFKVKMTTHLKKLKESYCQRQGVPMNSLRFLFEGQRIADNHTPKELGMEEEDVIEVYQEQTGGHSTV

[39] = target: T4, Small ubiquitin-related modifier 1; assay: SUMO1 protein-protein binding blockers, potency – biochemical, FRET, dose response (AID 624383); assay type: functional; conditions: read-out: IC50_Mean
[40] = target: Protein-tyrosine kinase 2-beta (Homo sapiens, UniProt Q14289);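 further: potency of inhibitors of PYK2 kinase phosphorylation of poly-GT substrate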
Protein-tyrosine kinase 2-beta, sequence (Q14289 whole entry): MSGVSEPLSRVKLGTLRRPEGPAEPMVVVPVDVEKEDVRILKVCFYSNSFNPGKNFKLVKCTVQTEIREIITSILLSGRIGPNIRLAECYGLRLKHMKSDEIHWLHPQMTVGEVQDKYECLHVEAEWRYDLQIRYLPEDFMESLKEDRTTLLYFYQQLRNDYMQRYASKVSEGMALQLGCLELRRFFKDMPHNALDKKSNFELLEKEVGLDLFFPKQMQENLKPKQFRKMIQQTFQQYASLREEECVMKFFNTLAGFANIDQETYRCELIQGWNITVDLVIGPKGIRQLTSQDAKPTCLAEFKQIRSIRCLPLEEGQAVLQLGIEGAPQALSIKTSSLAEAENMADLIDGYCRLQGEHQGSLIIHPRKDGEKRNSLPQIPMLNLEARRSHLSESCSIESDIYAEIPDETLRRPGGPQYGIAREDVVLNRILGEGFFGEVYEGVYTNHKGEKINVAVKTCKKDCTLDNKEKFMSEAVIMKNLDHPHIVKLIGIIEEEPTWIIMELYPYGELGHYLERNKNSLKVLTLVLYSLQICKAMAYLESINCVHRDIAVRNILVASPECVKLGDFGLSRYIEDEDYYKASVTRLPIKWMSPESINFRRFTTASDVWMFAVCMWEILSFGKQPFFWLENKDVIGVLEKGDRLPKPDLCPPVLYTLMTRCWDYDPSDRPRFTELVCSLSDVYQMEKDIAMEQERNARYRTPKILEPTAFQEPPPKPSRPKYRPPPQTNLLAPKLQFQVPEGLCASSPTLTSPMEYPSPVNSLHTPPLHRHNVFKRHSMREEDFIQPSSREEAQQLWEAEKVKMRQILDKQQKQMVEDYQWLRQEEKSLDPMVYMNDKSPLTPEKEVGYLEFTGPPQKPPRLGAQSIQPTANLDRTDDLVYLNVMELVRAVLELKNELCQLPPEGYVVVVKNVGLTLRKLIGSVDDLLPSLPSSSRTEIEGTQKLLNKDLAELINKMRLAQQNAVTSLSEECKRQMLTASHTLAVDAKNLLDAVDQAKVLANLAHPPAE

[41] = target: Voltage-dependent T-type calcium channel subunit alpha-1H (Homo sapiens, UniProt O95180); assay type: functional;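 further: channel activity triggered by adding a high calcium stimulation buffer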

COc1ccc(C(=O)N/N=C/C23CC[C@@H](O)CC2(O)CC[C@@H]2[C@@H]3CCC3(C)C(C4=CC(=O)OC4)CCC23O)cc1 (some centres undefined)
CC50 [1]: 12.5 µM (active)
CC50 (Vero [2]): 43.5 µM (active)
CC50 (Vero [3]): 22.1 µM (active)
CC50 [4]: 10.4 µM (active)

COc1ccc2ccccc2c1C(=O)/C=C\c1ccoc1
EC50 [5]: > 100 µM (active)

Cc1cc(C(=O)OCC(=O)c2ccc(Cl)c([N+](=O)[O-])c2)c2cccc(C)c2n1
IC50 (Genome polyprotein): > 49.8 µM (not active)

CC1=CC(C)(C)Nc2ccc(OC(=O)c3cccnc3)cc21
EC50 [6]: 8.6 µM (active)
EC50 [7]: 8.23 µM (active)
EC50 [8]: 7.33 µM (active)
EC50 [9]: 5.85 µM (active)
IC50 [10]: 62.5 µM (inactive)
IC50 [11]: 3.22 µM (active)
CC50 [12]: 34.4 µM (active)

Oc1ccc([C@H]2CNCc3c2ccc(O)c3O)cc1O
IC50 [13]: > 10 µM (inactive)
IC50 [14]: > 20 µM (inactive)
IC50 [15]: 0.0332 µM (active)
IC50 [16]: > 20 µM (inactive)
IC50 [17]: > 20 µM (inactive)
IC50 [18]: > 20 µM (inactive)
IC50 [19]: 0.466 µM (active)
IC50 [20]: > 10 µM (inactive)
IC50 [21]: > 20 µM (inactive)
IC50 [22]: > 20 µM (inactive)
IC50 [23]: 0.188 µM (active)
IC50 [24]: 5.95 µM (inactive)

CCc1cccc(CC)c1NC(=O)C(NS(=O)(=O)c1cccs1)c1ccccc1 (centres undefined)
IC50 [25]: > 35 µM (not active)
IC50 [26]: > 35 µM (not active)

Cc1csc(C(C#N)C(=O)c2cc3ccccc3o2)n1 (centres undefined)
EC50 [27]: 1.46 µM (active)
EC50 [28]: < 0.1 µM (active)
EC50 [29]: 0.387 µM (active)
EC50 (H4): 3.63 µM (active)
EC50 [30]: 9.73 µM (active)
EC50 [31]: 0.926 µM (active)

CCOc1ccc(NC(=O)CN(C)S(=O)(=O)c2c[nH]cn2)cc1
EC50 [32]: 25 µM (not active)

CCOC(=O)c1csc(NC(=O)c2ccc(OCC)cc2)n1
IC50 [33]: 0.88 µM (active)

O=C(N/N=C/c1ccncc1)c1cccc(S(=O)(=O)Nc2ccc(Cl)cc2)c1
IC50 [34]: 11.3 µM (not active)
IC50 (Bcl-2-like protein 1): > 109 µM (not active)
IC50 [35]: 2.6 µM (active)
IC50 [36]: 14.7 µM (active)
IC50 [37]: 2.87 µM (active)
IC50 [38]: > 66.6 µM (inactive)
IC50 [39]: 10.3 µM (active)

Cc1oc(-c2ccccc2)cc1C(=O)Nc1cccc2ccccc12
IC50 [40]: > 69.5 µM (not active)
EC50 [41]: 18 µM (active)
